# Tests used:
# HDAC = HDAC inhibitory activity assay (FRET); assay type: biochemical; conditions: for Inhibition rate: test concentration 100 nM, relative to DMSO control
# Description: The HDAC inhibitory activity of the synthesized compounds was determined by fluorescence resonance energy transfer (FRET), and then compared with that of the positive control to screen out compounds with better activity. HDAC was obtained by purification or purchased directly.
# The method was as follows.
# An enzyme was added to reaction wells, a reaction buffer was added to control wells, a sample dissolved in DMSO was added to the reaction wells, and the wells were incubated using a contactless nanoflow sonic pipetting system (Ech-550; nanoflow). A fluorescent substrate was added to each reaction well and then rotated and shaken. The wells were incubated for 1-2 h at 30° C. under a sealed condition. A TMP26-containing chromogenic agent was added to terminate the reaction and produce fluorescence. The fluorescence intensity was detected using En Vision multi-label microplate detector (Perkin Elmer) (excitation light: 490 nm, emitted light: 520 nm). After the stabilization of color development, the endpoint value was read. The percentage (relative to the DMSO control group) inhibition rate was calculated using the software GraphPad Prism 4.
# [1] = system: human breast cancer cells MCF7; assay: In vitro anti-tumor activity, MTT method; assay type: cell-based; conditions: MCF-7, MTT, 96-hour treatment
# Description: (§1) The inhibitory effects of the compounds against human non-small cell lung cancer cell lines A549, NCI-H1650, human small cell lung cancer cell lines H446, human prostate cancer cells DU145, PC-3, LNCAP, human colon cancer cells lines HCT116, human breast cancer cells MDA-MB-231, and MCF7 tumor cell lines were determined using the MTT method.
# (§2) The method was as follows. The cells in the exponential growth phase were collected to count living cells. The concentration of the cell suspension was adjusted using the corresponding medium of each group of cells. The cell suspension was added to the 96-well culture plate at 100 μL per cell, and the plate was placed in a 5% CO2 incubator at 37° C. and incubated for 24 h. Each test compound was dissolved in DMSO to prepare a stock solution with a corresponding concentration. Then, each stock solution was diluted 500-fold with the medium to prepare 4 replicate wells. 100 μL of the corresponding 500-fold solution was added to each well per cell line, with the final DMSO concentration of 0.1%. […] The half-maximal (relative to the DMSO control group) inhibition rate was calculated using the software GraphPad Prism 4.
# [2] = system: human non-small cell lung cancer cell line A549; assay: In vitro anti-tumor activity, MTT method; assay type: cell-based; conditions: 96-hour treatment
# Description: as §1, §2
# [3] = system: human prostate cancer cells DU145; assay: In vitro anti-tumor activity, MTT method; assay type: cell-based; conditions: 96-hour treatment
# Description: as §1, §2
# [4] = system: human prostate cancer cells PC-3; assay: In vitro anti-tumor activity, MTT method; assay type: cell-based; conditions: PC-3, MTT, 96-hour treatment
# Description: as §1, §2
SMILES,Inhibition rate (HDAC),"IC50 ([1]; Homo sapiens, MCF7, 96 h) [µM]","IC50 ([2]; Homo sapiens, A549, 96 h) [µM]","IC50 ([3]; Homo sapiens, DU-145, 96 h) [µM]","IC50 ([4]; Homo sapiens, 96 h) [µM]",Inhibition rate (HDAC; 0.1 µM),IC50 [1] [µM],IC50 [3] [µM],IC50 [4] [µM],"IC50 (HDAC; HDAC, FRET, read-out: Half-maximal inhibitory concentration (IC50 ± SD)) [µM]",IC50 [2] [µM]
"COc1ccc(Br)cc1/C=C1\CC(=O)N(CCCCCCC(=O)NO)C1=O [Example I-39, (E)-7-(3-(5-bromo-2-methoxybenzal)-2,5-diketopyrrolidinyl)-N-hydroxyheptamide]",88.1% ± 1.1%,0.68 ± 0.09,2.21 ± 0.27,0.46 ± 0.04,1.13 ± 0.07,,,,,,
"Cc1ccc(/C=C2\CC(=O)N(CCCCCCC(=O)NO)C2=O)cc1 [Example I-18, (E)-7-(3-(4-methylbenzal)-2,5-diketopyrrolidinyl)-N-hydroxyheptamide]",,,1.88 ± 0.17,,,85.9% ± 0.9%,0.46 ± 0.04,0.31 ± 0.05,2.2 ± 0.08,,
"CC(C)c1ccc(/C=C2\CC(=O)N(CCCCCCC(=O)NO)C2=O)cc1 [Example I-15, (E)-7-(3-(4-isopropylbenzal)-2,5-diketopyrrolidinyl)-N-hydroxyheptamide]",81.4% ± 0.5%,1.66 ± 0.14,3.68 ± 0.5,1.35 ± 0.27,1.82 ± 0.16,,,,,,
"O=C(CCCN1C(=O)C/C(=C\c2ccccc2)C1=O)N[C@H]1CCCC[C@@H]1O [Example I-10, 4-(3-((E)-benzal)-2,5-diketopyrrolidinyl)-N-((1S,2S)-2-hydroxycyclohexyl) butyramide]",,> 20,> 20,> 20,> 20,,,,,,
"O=C(CCCCCCN1C(=O)C/C(=C\c2cccs2)C1=O)NO [Example I-23, (E)-7-(3-(2-methylenethienyl)-2,5-diketopyrrolidinyl)-N-hydroxyheptamide]",84.9% ± 0.5%,0.97 ± 0.05,3.44 ± 0.15,0.54 ± 0.1,0.91 ± 0.07,,,,,,
O=C(CCCCN1C(=O)C/C(=C\c2ccccc2)C1=O)NO [Example I-2],,> 20,> 20,> 20,> 20,,,,,,
"COc1ccc(/C=C2\CC(=O)N(CCCCCCC(=O)NO)C2=O)cc1OC [Example I-34, (E)-7-(3-(3,4-dimethoxybenzal)-2,5-diketopyrrolidinyl)-N-hydroxyheptamide]",85.3% ± 7.2%,0.82 ± 0.09,1.23 ± 0.17,0.45 ± 0.12,0.88 ± 0.1,,,,,,
"O=C(CCCCCCN1C(=O)C/C(=C\c2cccc(I)c2)C1=O)NO [Example I-29, (E)-7-(3-(3-iodobenzal)-2,5-diketopyrrolidinyl)-N-hydroxyheptamide]",91.3% ± 0.7%,1.38 ± 0.12,5.09 ± 0.23,0.91 ± 0.07,1.47 ± 0.15,,,,,,
"Nc1cc(F)ccc1NC(=O)CCCCCCN1C(=O)C/C(=C\c2ccccc2)C1=O [Example I-9, (E)-N-(2-amino-4-fluorophenyl)-7-(3-benzal-2,5-diketopyrrolidinyl)heptamide]",,> 20,> 20,> 20,> 20,,,,,,
"O=C(CCCCCCN1C(=O)C/C(=C\c2ccc(C(F)(F)F)cc2)C1=O)NO [Example I-17, (E)-7-(3-(4-trifluoromethylbenzal)-2,5-diketopyrrolidinyl)-N-hydroxyheptamide]",76.2% ± 0.7%,1.68 ± 0.09,3.37 ± 0.43,1.22 ± 0.18,1.83 ± 0.05,,,,,,
"O=C(CCCCCN1C(=O)C/C(=C\c2ccccc2)C1=O)N[C@H]1CCCC[C@@H]1O [Example I-12, 6-(3-((E)-benzal)-2,5-diketopyrrolidinyl)-N-((1S,2S)-2-hydroxycyclohexyl)hexanamide]",0%,> 20,> 20,> 20,> 20,,,,,,
"COc1cc(/C=C2\CC(=O)N(CCCCCCC(=O)NO)C2=O)cc(OC)c1O [Example I-36, (E)-7-(3-(4-hydroxy-3,5-dimethoxybenzal)-2,5-diketopyrrolidinyl)-N-hydroxyheptamide]",74.8% ± 2.8%,1.88 ± 0.14,> 10,3.88 ± 0.04,1.73 ± 0.2,,,,,,
O=C(CCCCCCCN1C(=O)C/C(=C\c2ccccc2)C1=O)NO [Example I-5],,3.89 ± 0.36,5.88 ± 0.58,1.56 ± 0.18,5.01 ± 0.38,,,,,,
"COc1cccc(/C=C2\CC(=O)N(CCCCCCC(=O)NO)C2=O)c1 [Example I-32, (E)-7-(3-(3-methoxybenzal)-2,5-diketopyrrolidinyl)-N-hydroxyheptamide]",,0.88 ± 0.09,1.24 ± 0.21,0.4 ± 0.04,0.92 ± 0.03,,,,,0.0185 ± 0.00019,
"O=C(CCCCCCN1C(=O)C/C(=C\c2cccc(F)c2)C1=O)NO [Example I-28, (E)-7-(3-(3-fluorobenzal)-2,5-diketopyrrolidinyl)-N-hydroxyheptamide]",85.2% ± 1.6%,0.92 ± 0.05,3.02 ± 0.51,0.66 ± 0.12,0.89 ± 0.05,,,,,,
O=C(CCCCCN1C(=O)C/C(=C\c2ccccc2)C1=O)NO [Example I-3],,2.58 ± 0.07,3.51 ± 0.15,1.49 ± 0.21,4.27 ± 0.25,,,,,,
"O=C(CCCCCCN1C(=O)C/C(=C\c2cccc(Br)c2)C1=O)NO [Example I-27, (E)-7-(3-(3-bromobenzal)-2,5-diketopyrrolidinyl)-N-hydroxyheptamide]",90.9% ± 1.2%,0.83 ± 0.05,2.81 ± 0.1,0.65 ± 0.09,1.06 ± 0.13,,,,,,
"O=C(CCCCCCN1C(=O)C/C(=C\c2ccc(Cl)cc2)C1=O)NO [Example I-26, (E)-7-(3-(4-chlorobenzal)-2,5-diketopyrrolidinyl)-N-hydroxyheptamide]",86.6% ± 0.4%,0.69 ± 0.09,2.2 ± 0.26,0.57 ± 0.04,0.89 ± 0.12,,,,,,
"O=C(CCCCCCN1C(=O)C/C(=C\c2ccc(Cl)c(Cl)c2)C1=O)NO [Example I-30, (E)-7-(3-(3,4-dichlorobenzal)-2,5-diketopyrrolidinyl)-N-hydroxyheptamide]",82.1% ± 0.1%,0.9 ± 0.02,2.34 ± 0.1,0.44 ± 0.08,1.69 ± 0.08,,,,,,
"O=C(CCCN1C(=O)C/C(=C\c2ccccc2)C1=O)NO [Example I-1, (E)-4-(3-benzal-2,5-dioxopyrrolidinyl)-N-hydroxybutyramide]",,> 20,> 20,> 20,> 20,,,,,,
"O=C(CCCCN1C(=O)C/C(=C\c2ccccc2)C1=O)N[C@H]1CCCC[C@@H]1O [Example I-11, 5-(3-((E)-benzal)-2,5-diketopyrrolidinyl)-N-((1S,2S)-2-hydroxycyclohexyl)pentanamide]",,> 20,> 20,> 20,> 20,,,,,,
"Nc1cc(F)ccc1NC(=O)CCCN1C(=O)C/C(=C\c2ccccc2)C1=O [Example I-6, (E)-N-(2-amino-4-fluorophenyl)-4-(3-benzal-2,5-diketopyrrolidinyl) butyramide]",,,,,,,> 20,> 20,> 20,,> 20

# From patent US20260124191A1, “HISTONE DEACETYLASE INHIBITOR AND USES THEREOF” (NANJING HONGSHUN PHARMACEUTICAL TECHNOLOGY CO., LTD, priority 2023, published 2026)
